We go through 1 compound from paper PMC10704437, “Sterol-activated amyloid beta fibril formation” (The Journal of Biological Chemistry, 2023).

One assay addresses T1, Aβ42 monomer (Homo sapiens, UniProt P05067).
T1 construct: Small red spheres mark the Aβ42 peptide C-terminal residue, A42; purchased Sigma-Aldrich Corp
Put plainly: Sterol binding to Aβ42, equilibrium DHE fluorescence titrations. As to conditions: direct Aβ42 titration of DHE fluorescence; single-binding-site fit; K2PO4 50 mM, pH 7.4, 25 °C; read-out: Kd. On the procedure: CH ([27]) and CS ([28]) increase the rate of Aβ aggregation and CH is thought to stabilize fibrils ([29]); yet, the affinities of CH and its metabolites for the Aβ peptide monomer have not been determined. Here, CH and CS affinities for the Aβ42 monomer are established using dehydroergosterol (DHE)—a fluorescent CH analog ([30]) used as a competitive probe to determine CH and CS affinities. Aβ42 monomers were prepared as previously described ([31]) (see Methods). […] Under this condition, Aβ42 essentially quantitatively binds DHE until its concentration exceeds that of DHE, which results in a breakpoint in the titration curve that yields the stoichiometry. The arrow seen descending from the breakpoint indicates a stoichiometry of 1:1, which agrees well with the ∼1:1 CH-metabolite:Aβ stoichiometry estimated from analysis of senile plaques micro-dissected from AD-patient brain tissue ([15]).
Figure 1 Sterol binding to Aβ42at equilibrium.A, DHE affinity for monomeric Aβ4_2. […] Binding was detected via the binding-induced 4.4 (±0.2)-fold increase in DHE fluorescence (λex = 325 nm, λem= 375 nm). Fluorescence intensity, I, is plotted relative to the intensity at zero titrant, I0. Titrations were performed independently in triplicate and the line passing through the data is the least-squares fit to a single-binding-site model. B, Aβ42:DHE stoichiometry. […] C. DHE fluorescence (λex = 325 nm, λem = 375 nm) is plotted versus [Aβ42]/[DHE]. The line descending from the titration breakpoint indicates a stoichiometry of 1:1. C and D, CH and CS affinities. Affinities were determined by competitive binding versus DHE. […] C, was titrated with CH (5.0–500 nM, 0.05–5 × Kd) or CS (5.0–500 nM, 0.15–[…] × Kd). Binding was monitored via the decrease in DHE fluorescence (λex = 325, λem = 375) caused by DHE displacement from Aβ42. Controls ensured that <2.0% of Aβ42 oligomerized during the measurement. Titrations were performed in triplicate and averaged. The solid lines through the data represent least-squares fits to a competitive single-binding-site model. C and D, insets highlight the behavior of the titration over ligand concentrations that span their reported CMCs (indicated by arrows). […]
DHE/Aβ42 binding interactions were monitored via the binding-induced 4.4-fold change in DHE fluorescence (λex = 325 nm, λem= 375 nm). […]
The affinities of CH and CS for Aβ42 were determined in competitive binding studies versus DHE. Binding was detected via the fluorescence decrease (λex= 325 nm, λem = 375 nm) caused by DHE displacement. […] Imax = (fraction DHE-bound to peptide at zero competitive ligands)/4.4 — the fold fluorescence change associated with DHE dissociation, see Figure 1A.

A further assay addresses T2, Aβ42 (Homo sapiens, UniProt P05067).
T2 construct: Small red spheres mark the Aβ42 peptide C-terminal residue, A42; purchased Sigma-Aldrich Corp
Put plainly: Sterol binding to Aβ42, pre-steady-state stopped-flow fluorescence. The procedure:
To establish the rates at which Aβ42•ligand complexes form and dissociate, the rate constants governing the binding reactions were determined. DHE binding was monitored in real time using a stopped-flow fluorimeter via binding-induced changes in DHE fluorescence. The reactions are pseudo first order in [ligand] and kobs was obtained by least-squares fitting progress curves to a single-exponential equation ([44], [45]). kobs values were determined (in triplicate) at a series of Aβ42 concentrations and the averaged values are plotted versus [Aβ42] in Figure 2B. kon and koff are given by the slope and intercept of the kobs-versus-[Aβ42] plot obtained by linear least-square fitting ([44], [45]). […] The rate constants are compiled in Table 1.
Figure 2 Sterol binding to Aβ42—pre-steady state studies.A, DHE binding. Reactions were monitored via binding induced changes in DHE fluorescence using a stopped-flow fluorimeter (λex = 325, λem > 400 nm). Fluorescence intensity, I, is reported relative to the intensity in the absence of ligand, Io. […] C was rapidly mixed (1:1, v/v) with a solution identical except that Aβ42 was replaced by DHE (40 nM, 2.7 × Kd). The bindingreaction curve shown is the average of five independent progress curves. The averaged curve was a least-squares fit to a single-exponential equation and the resulting best fit (indicated by the red line) yielded kobs. B, DHE kon and koff. kobs values obtained as in Panel A were determined in triplicate at varying Aβ42 concentrations and the averaged values are shown plotted versus [Aβ42]. kon and koff are given by the slope and intercept of a linear least-squares fit of the kobsversus [Aβ42] plot. C and D, CH and CS displacement reactions.
Pre-steady-state binding of sterols to Aβ42 was monitored via the binding-induced change in DHE fluorescence (λex = 325, λem > 400 nm) using an Applied Photophysics SX20 stopped-flow fluorimeter.
Three progress curves (each an average of five independently obtained curves) were collected at five separate Aꞵ42 concentrations. The observed rate constant (kobs) at a given [Aβ42] was obtained by fitting the average of the three curves to a single-exponential equation using Pro-K software ([75]). kon and koff were obtained from the slopes and intercepts predicted by linear least-squares analysis of kobs versus [Aβ42] plots.
C. […] Progress curves were determined in triplicate and koff was obtained by least-squares fitting the averaged curves to a single-exponential equation using Pro-K.

Each structure is given as a SMILES string.

T2 sequence (P05067 672-713 limits assumed): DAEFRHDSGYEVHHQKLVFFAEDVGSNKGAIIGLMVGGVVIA
T1 sequence (P05067 672-713 limits assumed): as above

For `CC(C)[C@@H](C)/C=C/[C@@H](C)[C@H]1CC[C@H]2C3=CC=C4C[C@@H](O)CC[C@]4(C)C3=CC[C@]12C` [DHE, dehydroergosterol, reference compound], the Kd amounted to 16 nM at Aβ42 monomer and 17 nM on Aβ42 (ratio of rate constants, read-out: koff/kon). For the same compound, the dissociation rate constant (koff) (in general, a measure of how fast the partners let go of each other) on Aβ42 (intercept of kobs versus [Aβ42] plot, stopped-flow, pH 7.4, 25 °C) came to 1 s⁻¹. The kon (in general, a measure of how fast the partners come together) at Aβ42 (slope of kobs versus [Aβ42] plot, stopped-flow, pH 7.4, 25 °C) came to 6e+07 M⁻¹ s⁻¹.
